The text below walks through data of patent US20260206761A1, “HETEROARYL-TRIAZOLE COMPOUNDS AS PESTICIDES” (Bayer Aktiengesellschaft, priority 2019, published 2026).

Common to all, as to assay type: in vivo
Experiment [1] deals with Rhipicephalus microplus larvae (strain Parkhurst, resistant against synthetic pyrethroids). The experiment in a line: Rhipicephalus (Boophilus) microplus in-vitro contact test, larval cattle tick. The settings on record: after 48 hours, read-out: activity (efficacy: larvae dead or moribund); for pest or weed control at 100 g/ha: application rate 1 pg/cm^2 (=100 g/ha); for pest or weed control at 500 g/ha: application rate 5 pg/cm^2 (=500 g/ha). The procedure, abridged: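 Acetone solutions coated onto inner walls of glass tubes by rotation (900 ppm giving 5 μg/cm^2); after evaporation, 20-50 larvae added per tube and held at 27° C., 85% relative humidity. Efficacy read after 48 h from negative geotactic behaviour; 100% = all larvae dead or moribund.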

The subject of experiment [2] is adult cat fleas (Ctenocephalides felis). Briefly: Ctenocephalides felis in-vitro contact test, adult cat flea. To be noted: application rate 5 μg/cm^2 (=500 g/ha), after 48 hours, read-out: activity (efficacy: fleas dead or moribund). Here is the method:
Ctenocephalides felis—In-Vitro Contact Tests Adult Cat Flea
9 mg compound is solved in 1 mL acetone and diluted with acetone to the desired concentration. 250 μL of the test solution is filled in 25 mL glass test tubes and homogeneously distributed on the inner walls by rotation and tilting on a shaking device (2 h at 30 rpm). With a compound concentration of 900 ppm, an inner surface of 44.7 cm^2 and a homogeneous distribution, a dose of […] is achieved.
After the solvent has evaporated, each test tube is filled with 5-10 adult cat fleas (Ctenocephalides felis), closed with a perforated lid and incubated in a lying position at room temperature and relative humidity. After 48 hours efficacy is determined. The fleas are patted on the ground of the tubes and are incubated on a heating plate at 45-50° C. for at most 5 minutes. Immotile or uncoordinated moving fleas, which are not able to escape the heat by climbing upwards, are marked as dead or moribund.
An efficacy of 100% means all fleas are dead or moribund; 0% means no fleas are dead or moribund.

In experiment [3] the test system is fall armyworm larvae (Spodoptera frugiperda). The experiment in a line: Spodoptera frugiperda spray test. The settings on record: 168 h, read-out: activity (mortality). The procedure, abridged: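 Compound in acetone/DMF, diluted in water with 1000 ppm alkylarylpolyglycol ether emulsifier, sprayed on maize leaf sections. Dried leaves infested with fall armyworm larvae; % mortality after 7 days (100% = all killed, 0% = none).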

The subject of experiment [4] is adult unfed cat fleas (Ctenocephalides felis). Briefly: Ctenocephalides felis oral test. To be noted: 48 h, read-out: activity (mortality). The method, then:
Ctenocephalides felis—Oral Test
Solvent: dimethyl sulfoxide
To produce a suitable preparation of active compound, 10 mg of active compound are dissolved in 0.5 mL solvent, and the concentrate is diluted with cattle blood to the desired concentration.
Approximately 20 adult unfed cat fleas (Ctenocephalides felis) are placed in flea chambers. The blood chamber, sealed with parafilm on the bottom, are filled with cattle blood supplied with compound solution and placed on the gauze covered top of the flea chamber, so that the fleas are able to suck the blood. The blood chamber is heated to 37° C. whereas the flea chamber is kept at room temperature.
After 2 days mortality in % is determined. 100% means all the fleas have been killed; 0% means none of the fleas have been killed.

For experiment [5], the system named is adult engorged female ticks (Rhipicephalus microplus). The experiment in a line: Rhipicephalus (Boophilus) microplus injection test. The settings on record: 168 h, egg deposition after 7 days, read-out: activity (efficacy: infertile eggs); for pest or weed control at 4 pg: application rate 4 pg/animal; for pest or weed control at 0.02 mg: application rate 20 μg/animal. The procedure, abridged: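 Five adult engorged female ticks injected into the abdomen with 1 μL compound solution in DMSO, then held in a climate chamber. Fertile egg deposition assessed after 7 days, unclear eggs kept until hatching (about 42 days); efficacy 100% = all eggs infertile, 0% = all fertile.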

In experiment [6] the test system is adult brown dog ticks (Rhipicephalus sanguineus). The experiment in a line: Rhipicephalus sanguineus in-vitro contact test, adult brown dog ticks. To be noted: after 48 hours, read-out: activity (efficacy: ticks dead or moribund); for pest or weed control at 100 g/ha: application rate 1 pg/cm^2 (=100 g/ha); for pest or weed control at 5 µg/cm2, 500 g/ha: application rate 5 μg/cm^2 (=500 g/ha). The procedure, abridged:
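Acetone solution rolled onto tube walls, 2 h at 30 rpm; 900 ppm → 5 μg/cm^2. Solvent evaporated, 5-10 adults/tube, perforated lid, lying, RT. 48 h: heat plate 45-50° C ≤5 min; immotile/uncoordinated = dead/moribund. 100% = all dead/moribund.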

Experiment [7] deals with larvae of the banded cucumber beetle (Diabrotica balteata). Briefly: Diabrotica balteata spray test. To be noted: 168 h, application rate 100 g/ha (=32 pg/well), after 7 days, read-out: activity (efficacy: seedlings grown). Put shortly:
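Wheat seedlings, germinated 1 day on agar (5 seeds/well), sprayed with active compound in acetone/DMF diluted in water containing 1000 ppm emulsifier, then infested with 10-20 D. balteata larvae. Efficacy (%) scored after 7 days: 100% = seedlings grown as untreated uninfested control, 0% = no seedlings grown.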

Experiment [8] deals with larvae of the southern green stink bug (Nezara viridula). The experiment in a line: Nezara viridula spray test. To be noted: 96 h, after 4 days; for mortality at 100 g/ha: application rate 100 g/ha. The procedure, abridged:
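Compound in acetone/dimethylformamide, diluted in water with 1000 ppm alkylarylpolyglycol ether emulsifier, sprayed onto barley plants carrying stink bug larvae. Mortality (%) scored after 4 days, 100% meaning all insects killed.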

Experiment [9] deals with green peach aphid (Myzus persicae). The experiment in a line: Myzus persicae spray test. To be noted: 120 h, after 5 days; for mortality at 100 g/ha: application rate 100 g/ha. Here is the method: Myzus persicae—Spray Test
Solvent: 78.0 parts by weight acetone • 1.5 parts by weight dimethylformamide
Emulsifier: alkylarylpolyglycol ether
To produce a suitable preparation of active compound, 1 part by weight of active compound is mixed with the stated amount of solvents and is diluted with water, containing an emulsifier concentration of 1000 ppm, to the desired concentration. Further test concentrations are prepared by dilution with emulsifier containing water.
Chinese cabbage (Brassica pekinensis) leaf disks infected with all instars of the green peach aphid (Myzus persicae), are sprayed with a preparation of the active ingredient of the desired concentration.
After 5 days mortality in % is determined. 100% means all aphids have been killed and 0% means none of the aphids have been killed.

For experiment [10] the test system is unchanged. The experiment in a line: Myzus persicae oral test. To be noted: 120 h, application rate 4 ppm, after 5 days. Put shortly:
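Compound was dissolved at 1 part by weight in 100 parts acetone, then diluted with water to test concentration and combined with IPL41 insect medium (33%+15% sugar). A mixed aphid population fed on this through a parafilm seal, and mortality (%) was scored after 5 days.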

Experiment [11] deals with Aedes aegypti strain MONHEIM. Briefly: Aedes aegypti test (AEDSAE surface treatment & contact assay). To be noted: 24 hours after contact, read-out: efficacy (mortality); for mortality at 4 mg/m2: surface concentration 4 mg/m^2, exposure 30 minutes. The method, then: Aedes aegypti Test (AEDSAE Surface Treatment & Contact Assay)
Solvent: Aceton+2000 ppm rapeseed oil methyl ester (RME)
In order to produce a sufficient, active ingredient containing solution it is necessary to solve the test compound in the solvent-mix (acetone at 2 mg/ml/RME 2000 ppm). This solution is pipetted onto a glazed tile and after evaporation of the acetone, adult mosquitoes of the species Aedes aegypti strain MONHEIM are placed onto the dried surface. The exposure time is 30 minutes. Mortality in percent (%) is determined 24 hours after contact of the insects to the treated surface. 100% mortality means that all tested insects are dead, whereas 0% means that no insect died.

Structures are written as SMILES.

As a reminder, the mortality is the share of the test organisms that died. As for `CC(NC(=O)c1cc(Cl)cc(S(C)(=O)=O)c1)c1nc(Cl)nn1-c1ccc(C#N)cn1` (stereo not drawn) [I-32], in [1], the pest or weed control at 100 g/ha turned out to be 100% and the pest or weed control at 500 g/ha is 100%. Besides, the pest or weed control at 5 µg/cm2 in experiment [2] is 100%. In addition, the mortality at 100 g/ha in experiment [3] amounted to 100%. Besides, the mortality at 100 ppm in [4] turned out to be 100%. For the same molecule, in experiment [5], the pest or weed control at 4 pg is 100% and the pest or weed control at 0.02 mg stood at 100%.

For the molecule `CC(NC(=O)c1cc(OC(F)(F)F)cc(C2CC2)c1)c1nc(I)nn1-c1ncccn1` (stereo not drawn) [I-43], the pest or weed control at 100 g/ha in experiment [1], in experiment [6] and in experiment [7] was 100% throughout. Also, in experiment [1], the pest or weed control at 500 g/ha was 100%. Besides, the pest or weed control at 5 µg/cm2, 500 g/ha in experiment [6] is 100%. The mortality at 100 g/ha in experiment [8], in [9] and in experiment [3] was 100% throughout. The molecule also registered a mortality at 4 ppm in [10] of 100%.

Regarding `COc1nc([C@H](C)NC(=O)c2cc(Cl)cc(S(=O)(=O)C(F)(F)F)c2)n(-c2ccc(Cl)cn2)n1` [I-52], the pest or weed control at 5 µg/cm2 in [2] turned out to be 90%. Further, the mortality at 100 g/ha in [3] was 83%.

In the case of `C[C@H](NC(=O)c1cc(C(F)F)cc(S(C)(=O)=O)c1)c1nc(C2CC2)nn1-c1ncc(Cl)cn1` [I-67], the pest or weed control at 100 g/ha in [7] stood at 100%. In addition, the mortality at 100 g/ha came out at 100% in [8], 90% in experiment [9] and 100% in experiment [3]. Besides, the mortality at 500 g/ha in experiment [8] (application rate 500 g/ha) and in [9] (application rate 500 g/ha) was 100% throughout. The same molecule gave a mortality at 4 ppm in experiment [10] of 100%.

In the case of `COc1nc([C@H](C)NC(=O)c2cc(C(F)F)cc(C3CC3)c2)n(-c2ccc(C#N)cn2)n1` [I-70], in experiment [1], the pest or weed control at 100 g/ha stood at 100% and the pest or weed control at 500 g/ha is 100%. In experiment [6], the pest or weed control at 5 µg/cm2, 500 g/ha worked out at 80%. In addition, in [2], the pest or weed control at 5 µg/cm2 turned out to be 80%.

`CCS(=O)(=O)c1cc(C(=O)N[C@@H](C)c2ncnn2-c2ccc(Cl)cn2)cc(C(F)(F)F)c1` [II-45]: in [1], the pest or weed control at 100 g/ha stood at 100% and the pest or weed control at 500 g/ha is 100%. In addition, in experiment [7], the pest or weed control at 100 g/ha turned out to be 100%. For the same molecule, the pest or weed control at 5 µg/cm2 in [2] was 80%. The mortality at 100 g/ha in experiment [8] was 100%. In addition, in experiment [11], the mortality at 4 mg/m2 fell in the range of 80 to 100%. The mortality at 100 ppm in experiment [4] came out at 100%. Besides, in experiment [5], the pest or weed control at 4 pg was found to be 100% and the pest or weed control at 0.02 mg turned out to be 100%.

As for `C[C@H](NC(=O)c1cc(C#N)cc(C2CC2)c1)c1ncnn1-c1ccc(C#N)cn1` [II-53], in experiment [1], the pest or weed control at 100 g/ha came out at 80% and the pest or weed control at 500 g/ha was 80%. For the same molecule, the pest or weed control at 5 µg/cm2 in [2] is 100%. Further, the mortality at 100 g/ha in [3] came out at 83%. Moreover, the mortality at 4 mg/m2 in experiment [11] was 80 to 100%. Moreover, the mortality at 20 mg/m2 in experiment [11] (surface concentration 20 mg/m^2, exposure 30 minutes) is 80 to 100%. The mortality at 100 ppm in [4] was 100%.

In the case of `C[C@H](NC(=O)c1cc(I)cc(C2CC2)c1)c1ncnn1-c1ccc(C#N)cn1` [II-58], in [1], the pest or weed control at 100 g/ha worked out at 100% and the pest or weed control at 500 g/ha came to 100%. Further, in [6], the pest or weed control at 100 g/ha amounted to 100% and the pest or weed control at 5 µg/cm2, 500 g/ha worked out at 100%. For the same molecule, the pest or weed control at 100 g/ha in [7] came to 100%. In addition, the pest or weed control at 5 µg/cm2 in experiment [2] was 80%. For the same molecule, the mortality at 100 g/ha in experiment [3] is 100%. Also, the mortality at 100 ppm in experiment [4] was 100%. Besides, the pest or weed control at 4 pg in experiment [5] came out at 100%.

`C[C@H](NC(=O)c1cc(Br)cc(C2CC2)c1)c1ncnn1-c1ccc(C#N)cn1` [II-59]: in experiment [1], the pest or weed control at 100 g/ha came to 100% and the pest or weed control at 500 g/ha is 100%. Further, in experiment [6], the pest or weed control at 100 g/ha was 100% and the pest or weed control at 5 µg/cm2, 500 g/ha was 100%. For the same molecule, the pest or weed control at 100 g/ha in experiment [7] amounted to 100%. In [2], the pest or weed control at 5 µg/cm2 stood at 100%. In experiment [3], the mortality at 100 g/ha worked out at 100%. Further, the mortality at 4 ppm in [10] amounted to 100%. In addition, in experiment [5], the pest or weed control at 4 pg is 80%.
